# Experiments:
# K562 [1] = experiment: Antiproliferative activity against human K562 cells incubated for 72 hrs by MTT assay; format: functional, cell-based; settings: K562, 72 h
# [2] = Antiproliferative activity against human HFL1 cells incubated for 72 hrs by MTT assay; format: toxicity, cell-based
# B16-F10 = experiment: Antiproliferative activity against mouse B16-F10 cells incubated for 72 hrs by MTT assay; format: functional, cell-based; settings: B16-F10, 72 h
# MCF7 = experiment: cells; settings: Homo sapiens, MCF7, 72 h
# Description: Antiproliferative activity against human MCF7 cells incubated for 72 hrs by MTT assay
# A2780 = experiment: cells; settings: Homo sapiens, A2780, 72 h
# Description: Antiproliferative activity against human A2780 cells incubated for 72 hrs by MTT assay
# A549 = experiment: cells; settings: Homo sapiens, A549, 72 h
# Description: Antiproliferative activity against human A549 cells incubated for 72 hrs by MTT assay
# MDA-MB-231 = experiment: cells; settings: Homo sapiens, MDA-MB-231, 72 h
# Description: Antiproliferative activity against human MDA-MB-231 cells incubated for 72 hrs by MTT assay
# K562 [3] = experiment: Antiproliferative activity against human K562 cells assessed as cell inhibition rate at 1 uM incubated for 72 hrs by MTT assay relative to control; format: functional
# K562 [4] = experiment: Antiproliferative activity against human K562 cells assessed as cell inhibition rate at 0.01 uM incubated for 72 hrs by MTT assay relative to control; format: functional
# K562 [5] = experiment: Antiproliferative activity against human K562 cells assessed as cell inhibition rate at 0.1 uM incubated for 72 hrs by MTT assay relative to control; format: functional
compound,measurement,setting,value
C=C(c1ccc(OC)c(OCC(=O)NO)c1)c1ccnc2ccccc12,IC50,K562 [1],79 nM
C=C(c1ccc(OC)c(OC(C)C(=O)NO)c1)c1ccnc2ccccc12 (stereo not drawn),IC50,K562 [1],69 nM
C=C(c1ccnc(C)c1)c1ccc(OC)c(OCCCCCC(=O)NO)c1,IC50,K562 [1],2880 nM
C=C(c1ccc(OC)c(OC(C)(C)C(=O)NO)c1)c1cc(C)nc2ccccc12,IC50 at 72 h,[2],103 nM
same,IC50,B16-F10,4 nM
same,IC50,MCF7,44 nM
same,IC50,K562 [1],5 nM
same,IC50,A2780,8 nM
same,IC50,A549,9 nM
same,IC50,MDA-MB-231,31 nM
C=C(c1ccc(OC)cc1)c1cc(COCC(=O)NO)nc2ccccc12,inhibition at 1 µM,K562 [3],40%
same,inhibition at 0.01 µM,K562 [4],2.6%
same,inhibition at 0.1 µM,K562 [5],3%
C=C(c1cc(C)nc(C)c1)c1ccc(OC)c(OCCCC(=O)NO)c1,IC50,K562 [1],516 nM
C=C(c1cccc(OC/C=C/C(=O)NO)c1)c1cc(C)nc2ccccc12,IC50,K562 [1],2740 nM
C=C(c1ccnc(OC)c1)c1ccc(OC)c(OC(C)C(=O)NO)c1 (stereo not drawn),IC50,K562 [1],61 nM
C=C(c1ccnc(OC)c1)c1ccc(OC)c(OCCCC(=O)NO)c1,IC50,K562 [1],1140 nM
C=C(c1cccc(OC(C)C(=O)NO)c1)c1cc(C)nc2ccccc12 (stereo not drawn),IC50,K562 [1],2370 nM
C=C(c1cccc(OCC(=O)NO)c1)c1cc(C)nc2ccccc12,IC50,K562 [1],2480 nM
C=C(c1ccc(OC)c(OCC(=O)NO)c1)c1cc(C)nc2ccccc12,IC50 at 72 h,[2],195 nM
same,IC50,B16-F10,28 nM
same,IC50,MCF7,55 nM
same,IC50,K562 [1],8 nM
same,IC50,A2780,16 nM
same,IC50,A549,38 nM
same,IC50,MDA-MB-231,32 nM
COc1ccc(/C=C\c2cc(OC)c(OC)c(OC)c2)cc1O [COMBRETASTATIN A4],IC50 at 72 h,[2],82 nM
same,inhibition at 1 µM,K562 [3],95%
same,IC50,B16-F10,7 nM
same,IC50,MCF7,71 nM
same,inhibition at 0.01 µM,K562 [4],86.6%
same,IC50,K562 [1],7 nM
same,IC50,A549,2 nM
same,IC50,MDA-MB-231,29 nM
same,inhibition at 0.1 µM,K562 [5],88.4%
C=C(c1ccc(OC)cc1)c1cc(C(=O)Nc2ccccc2N)nc2ccccc12,inhibition at 1 µM,K562 [3],1.1%
same,inhibition at 0.01 µM,K562 [4],-0.16%
same,inhibition at 0.1 µM,K562 [5],0.24%
C=C(c1cccc(OCCCC(=O)NO)c1)c1cc(C)nc2ccccc12,IC50,K562 [1],3000 nM
C=C(c1ccnc(C)c1)c1ccc(OC)c(OCC(=O)NO)c1,IC50,K562 [1],107 nM
C=C(c1ccc2[nH]ccc2c1)c1cc(/C=C/C(=O)NO)nc2ccccc12,inhibition at 1 µM,K562 [3],4.78%
same,inhibition at 0.01 µM,K562 [4],3.16%
same,inhibition at 0.1 µM,K562 [5],3.73%
C=C(c1ccc(OC)c(O)c1)c1cc(/C=C/C(=O)NO)nc2ccccc12,inhibition at 1 µM,K562 [3],87.3%
same,inhibition at 0.01 µM,K562 [4],-0.17%
same,inhibition at 0.1 µM,K562 [5],12.9%
C=C(c1ccnc(C)c1)c1ccc(OC)c(OCCCC(=O)NO)c1,IC50,K562 [1],1490 nM
C=C(c1ccc(OC)c(O)c1)c1cc(C(=O)Nc2ccccc2N)nc2ccccc12,inhibition at 1 µM,K562 [3],4.26%
same,inhibition at 0.01 µM,K562 [4],0.16%
same,inhibition at 0.1 µM,K562 [5],3.71%
C=C(c1ccc(OC)c(OCCCC(=O)NO)c1)c1ccnc2ccccc12,IC50,K562 [1],1460 nM
C=C(c1ccc(OC)c(OCCC(=O)NO)c1)c1cc(C)nc2ccccc12,IC50,K562 [1],61 nM
C=C(c1ccc(OC)c(/C=C/C(=O)NO)c1)c1cc(C)nc2ccccc12,IC50 at 72 h,[2],311 nM
same,IC50,B16-F10,15 nM
same,IC50,MCF7,17 nM
same,IC50,K562 [1],42 nM
same,IC50,A2780,5 nM
same,IC50,A549,9 nM
same,IC50,MDA-MB-231,11 nM
C=C(c1ccnc(C)c1)c1ccc(OC)c(OC(C)C(=O)NO)c1 (stereo not drawn),IC50,K562 [1],60 nM
C=C(c1cc(C)nc(C)c1)c1ccc(OC)c(OC(C)C(=O)NO)c1 (stereo not drawn),IC50 at 72 h,[2],213 nM
same,IC50,B16-F10,72 nM
same,IC50,MCF7,19 nM
same,IC50,K562 [1],19 nM
same,IC50,A2780,23 nM
same,IC50,A549,80 nM
same,IC50,MDA-MB-231,99 nM
C=C(c1ccnc(OC)c1)c1ccc(OC)c(OCC(=O)NO)c1,IC50,K562 [1],55 nM
C=C(c1ccc(OC)c(OCCCCC(=O)NO)c1)c1cc(C)nc2ccccc12,IC50,K562 [1],1840 nM
C=C(c1ccc(OC)c(C(=O)NO)c1)c1cc(C)nc2ccccc12,IC50,K562 [1],1320 nM
C=C(c1ccc(OC)c(OCCCCCC(=O)NO)c1)c1cc(C)nc2ccccc12,IC50,K562 [1],2260 nM
C=C(c1ccnc(OC)c1)c1ccc(OC)c(OCCCCCC(=O)NO)c1,IC50,K562 [1],3860 nM
C=C(c1cc(C)nc(C)c1)c1ccc(OC)c(OCCCCCC(=O)NO)c1,IC50,K562 [1],1920 nM
C=C(c1cccc(OCCCCCC(=O)NO)c1)c1cc(C)nc2ccccc12,IC50,K562 [1],9270 nM
C=C(c1ccc(OC)cc1)c1cc(/C=C/C(=O)NO)nc2ccccc12,inhibition at 1 µM,K562 [3],43.5%
same,inhibition at 0.01 µM,K562 [4],1.41%
same,inhibition at 0.1 µM,K562 [5],6.82%
C=C(c1ccc2[nH]ccc2c1)c1cc(C(=O)Nc2ccccc2N)nc2ccccc12,inhibition at 1 µM,K562 [3],2.75%
same,inhibition at 0.01 µM,K562 [4],-0.17%
same,inhibition at 0.1 µM,K562 [5],2.75%
C=C(c1cc(C)nc(C)c1)c1ccc(OC)c(OCC(=O)NO)c1,IC50 at 72 h,[2],264 nM
same,IC50,B16-F10,98 nM
same,IC50,MCF7,52 nM
same,IC50,K562 [1],26 nM
same,IC50,A2780,36 nM
same,IC50,A549,69 nM
same,IC50,MDA-MB-231,111 nM
C=C(c1ccc(OC)c(C(=O)Nc2ccccc2N)c1)c1cc(C)nc2ccccc12,IC50,K562 [1],22200 nM
C=C(c1ccc(OC)c(OCCCC(=O)NO)c1)c1cc(C)nc2ccccc12,IC50,K562 [1],173 nM
C=C(c1ccc(OC)c(OC(F)(F)C(=O)NO)c1)c1cc(C)nc2ccccc12,IC50,K562 [1],204 nM
C=C(c1ccc2[nH]ccc2c1)c1cc(COCC(=O)NO)nc2ccccc12,inhibition at 1 µM,K562 [3],15%
same,inhibition at 0.01 µM,K562 [4],2.28%
same,inhibition at 0.1 µM,K562 [5],6.23%
C=C(c1ccc(OC)c(OCCCCCC(=O)NO)c1)c1ccnc2ccccc12,IC50,K562 [1],3340 nM
C=C(c1cccc(OC(C)(C)C(=O)NO)c1)c1cc(C)nc2ccccc12,IC50,K562 [1],6860 nM
C=C(c1ccc(OC)c(O)c1)c1cc(COCC(=O)NO)nc2ccccc12,inhibition at 1 µM,K562 [3],71.5%
same,inhibition at 0.01 µM,K562 [4],0.83%
same,inhibition at 0.1 µM,K562 [5],6.41%

# Reference: ChEMBL document CHEMBL5620374, “Synthesis and bioevaluation of novel stilbene-based derivatives as tubulin/HDAC dual-target inhibitors with potent antitumor activities in vitro and in vivo” (Eur J Med Chem, 2023)
